Measurements published in patent US9857359B2, “Methods for determining drug efficacy using cereblon-associated proteins” (CELGENE CORPORATION, priority 2012, dated 2018).

Legend:
Aiolos [1] = test: Aiolos expression in viably frozen PBMCs prepared from treated whole blood, FACS; assay type: cell-based, human
Experimental: Pre-weighed test compound was dissolved in 100% DMSO to make 100 mM or 10 mM stock concentrations. The compound in 100% DMSO was diluted to 10 mM, 1 mM, or 0.1 stock concentrations as appropriate. Compounds were directly added to heparinized human whole blood (1:1000 dilution) for final concentrations of 10 μM, 1 μM, or […] as appropriate. Seven (7) ml of whole blood was transferred to a 50 mL conical tube and treated with test compound. The blood was incubated for 1.5 or 5 hours at 37° C., 5% CO2. After each time point, 3.5 ml blood was transferred to BD Vacutainer CPT cell preparation tube, and the tube was […] inverted 10 times and centrifuged at RT, 1800 RCF for 20 minutes. Mononuclear layer was collected and transferred to 15 ml conical tube (3×3.5 ml DMSO controls were added to three CPT tubes, and mononuclear layers were collected and combined for following steps). The tube was filled up with cold PBS and centrifuged at 4° C., 300 RCF for 15 minutes. Supernatant was discarded and cell pellet was resuspended in 2 ml freezing medium (10% DMSO+90% FBS). The cell suspension was transferred to cryovial and was placed in Mr. Frosty (Fisher, cat. 15-350-50) and left at −80° C. freezer O/N.
The cells were thawed in 37° C. water bath and centrifuged, and the freezing medium was removed. The cell pellet was washed 1× with cold PBS. The cells were lyzed and fixed by adding 1× Lyse/Fix buffer and mixed thoroughly by inverting the tube several times. The cell lyse/fix and blood mixture was incubated in a 37° C. water bath for 10 minutes. Cells were pelleted by centrifugation at 500×g for 5 minutes and removed the supernatant by aspiration. Cells were suspended with 1 mL of cold PBS, and then pelleted by centrifugation at 500×g for 5 minutes, and the supernatant was aspirated off. Two hundred (200) μL of PBS was added to cells. Cells were transferred to polystyrene U-bottom 96-well plates (BD, Cat. No. 353910) for use with the FACSCanto HTS. Cells were washed with 200 μL of cold PBS and spun at 500×g for 5 minutes, and the plate was flicked and gently dapped on a paper towel to remove excess buffer. The cells were resuspended and permeabilized by adding 200 μL of cold BD Perm/Wash Buffer I and incubated on ice for 30 minutes. The cells were pelleted by centrifugation at 500×g for 5 minutes and the buffer removed. The cells were washed once with 200 μL BD perm/wash buffer and repelleted, and the buffer was removed.
(§1) The cell pellet was resuspended in 40 μL of BD perm/wash buffer. Twenty (20) μL each of anti-CD3-PE, anti-CD20-APC, and anti-Aiolos Rabbit antibodies, or 20 μL of appropriate isotype controls, or 20 μL of 1:400 of normal Rabbit IgG (control for Aiolos) were added to the cells. The mixture was mixed thoroughly and incubated at room temperature for 45 minutes in the dark. The mixture was centrifuged and washed once with BD perm/wash buffer at 500×g for 5 minutes. The cell pellet was resuspended in 80 μL of BD perm/wash buffer, and 20 μL of secondary Goat Anti-Rabbit IgG AF488 antibody (at 1:400 dilution in Perm/Wash Buffer) was added, and the mixture was incubated at RT for 30 min in the dark. Secondary antibody was not added to the isotype controls. The mixture was washed once with 200 μL BD Stain Buffer and centrifuged at 500×g for 5 minutes, and the pelleted cells were resuspended in 200 μL of staining buffer. The cells were analyzed on the BD FACSCanto using the HTS platform. The cells were analyzed using the standard method. If the cells cannot be read right away, the plates were covered in foil to protect from light and stored at 4° C. for up to 2 days. Data analysis was carried out using FlowJo from Tree Star, Inc. to assess mean fluorescence intensity and percent inhibition of Aiolos in cell population.

Aiolos [2] = test: Aiolos expression in human whole blood by FACS assay; assay type: cell-based
Experimental: Pre-weighed test compound was dissolved in 100% DMSO to make 100 mM or 10 mM stock concentrations. The compound in 100% DMSO was diluted to 10 mM, 1 mM, 0.1 mM, 0.01 mM, 0.001 mM stock concentrations as appropriate. Compounds were directly added to heparinized human whole blood (1:1000 dilution) for final concentrations of 10 μM, 1 μM, or 0.1 μM as appropriate. Ten (10) ml of whole blood was transferred to a 50 mL conical tube and treated with test compound. The final DMSO concentration was 0.1%. The blood was incubated for 1.5 or 5 hours at 37° C., 5% CO2. After each time point, the blood was lysed/fixed, permeabilized, washed and stained with Aiolos as described below.
BD Lyse/Fix Buffer was diluted 5× with distilled (or deionized) water. The Lyse/Fix buffer was pre-warmed in a 37° C. water bath for 10 minutes before use. The cells were lyzed and fixed immediately by mixing 1 volume of whole blood with 20 volumes of 1× Lyse/Fix buffer (for the 1 mL of blood+compound, add 20 mL of 1× Lyse/Fix buffer) and mixed thoroughly by inverting the tube several times. The cell lyse/fix and blood mixture was incubated in a 37° C. water bath for 10 minutes. Cells were pelleted by centrifugation at 500×g for 5 minutes and removed the supernatant by aspiration. Cells were suspended with 5 mL of cold PBS, and then pelleted by centrifugation at 500×g for 5 minutes, and the supernatant was aspirated off. Two hundred (200) μL of PBS was added to cells. Cells were transferred to polystyrene U-bottom 96-well plates (BD, Cat. No. 353910) for use with the FACSCanto HTS. Cells were washed with 200 μL of cold PBS and spun at 500×g for 5 minutes, and the plate was flicked and gently dapped on a paper towel to remove excess buffer. The cells were resuspended and permeabilized by adding 200 μL of cold BD Perm/Wash Buffer I and incubated on ice for 30 minutes. The cells were pelleted by centrifugation at 500×g for 5 minutes and the buffer removed. The cells were washed once with 200 μL BD perm/wash buffer and repelleted, and the buffer was removed.
as §1

Question: What does the source list for `Cc1nc2cccc(N)c2c(=O)n1C1CCC(=O)NC1=O` (stereo not drawn) [Compound A, 3-(5-amino-2-methyl-4-oxo-4H-quinazolin-3-yl)-piperidine-2,6-dione]?
Answer: Aiolos expression in T and B cell populations (Aiolos [1]; 1.5 hours after the treatment): inhibitory effect was observed in both T and B cell populations; Aiolos expression in lymphocytes (Aiolos [1]; 1.5 hours after the treatment): some inhibitory effects; Aiolos expression in non-lymphocytes (Aiolos [1]; 1.5 hours after the treatment): no effect was observed; Aiolos expression in lymphocyte cells (Aiolos [1]; 5 hours after the treatment): significant inhibitory effects; Aiolos expression in non-lymphocytes (Aiolos [1]; 5 hours after the treatment): no such effects were observed; Aiolos expression in T and B cell populations (Aiolos [2]; 1.5 hours after the treatment): inhibitory effect was observed in both T and B cell populations; Aiolos expression in lymphocytes (Aiolos [2]; 1.5 hours after the treatment): significantly inhibited the expression of Aiolos; Aiolos expression in non-lymphocytes (Aiolos [2]; 1.5 hours after the treatment): no significant effect was observed; Aiolos expression in lymphocytes (Aiolos [2]; 5 hour after the treatment): the degree of inhibition was more significant than that observed at 1.5 hours

Question: How did the “Aiolos expression in T and B cell populations” value (Aiolos [1]; 1.5 hours after the treatment) turn out when `O=C1CC[C@H](N2Cc3c(OCc4ccc(CN5CCOCC5)cc4)cccc3C2=O)C(=O)N1` [Compound B, 3-(4-((4-(morpholinomethyl)benzyl)oxy)-1-oxoisoindolin-2-yl)piperidine-2,6-dione] was run?
Answer: The value was “inhibitory effect was observed in both T and B cell populations”.

Question: And the “Aiolos expression in lymphocytes” value (Aiolos [1]; 1.5 hours after the treatment)?
Answer: The value was “some inhibitory effects”.

Question: And the “Aiolos expression in non-lymphocytes” value (Aiolos [1]; 1.5 hours after the treatment)?
Answer: The value was “no effect was observed”.

Question: And the “Aiolos expression in lymphocyte cells” value (Aiolos [1]; 5 hours after the treatment)?
Answer: Its value is “significant inhibitory effects”.

Question: And the “Aiolos expression in non-lymphocytes” value (Aiolos [1]; 5 hours after the treatment)?
Answer: Its value is “no such effects were observed”.

Question: What about the “Aiolos expression in T and B cell populations” value (Aiolos [2]; 1.5 hours after the treatment) of the same molecule?
Answer: Its value is “inhibitory effect was observed in both T and B cell populations”.

Question: And the “Aiolos expression in lymphocytes” value (Aiolos [2]; 1.5 hours after the treatment)?
Answer: Its value is “significantly inhibited the expression of Aiolos”.

Question: What about the “Aiolos expression in non-lymphocytes” value (Aiolos [2]; 1.5 hours after the treatment) of the same molecule?
Answer: The value was “no significant effect was observed”.

Question: What about the “Aiolos expression in lymphocytes” value (Aiolos [2]; 5 hour after the treatment) of the same molecule?
Answer: The value was “the degree of inhibition was more significant than that observed at 1.5 hours”.
